Data reported in patent US5576318A, “Benzimidazolone derivatives” (Boehringer Ingelheim Italia S.p.A., priority 1991, dated 1996).

Assays:
5-HT2 receptor = molecular target: T1, 5-HT2 receptor (Rattus norvegicus, UniProt P14842); experiment: 5-HT2 receptor binding ([3H]-Ketanserine displacement, rat cerebral cortices); parameters: species or system rat (male Sprague Dawley); conditions: 37° C. for 10 min, read-out: AFFINITY FOR 5-HT2 RECEPTORS Ki
T1 construct: Cerebral cortices were homogenized in 10 volumes of ice cold 0.32M sucrose; from tissue; host or cells: cerebral cortex of male Sprague Dawley rats, membranes
Procedure: Receptor binding studies on 5-HT1A and 5-HT2 receptors were carried out to determine the affinity of the test compounds.
Rats (male Sprague Dawley, 200-250 g) were used. Cerebral cortices were homogenized in 10 volumes of ice cold 0.32M sucrose. After the centrifugation of the homogenate (1,000×g for 10 min) the supernatant was then recentrifuged at 48,000×g for 15 min. The resulting pellet was resuspended in 10 volumes of 50 mM TRIS buffer (pH 7.4), incubated at 37° C. for 10 min and recentrifuged at 48,000×g for 15 min. The residue was then resuspended in 10 volumes of 50 mM TRIS buffer (pH 7.4).
The tissue was diluted 1:100 (w:v) in 50 mM TRIS buffer (pH 7.4) to have a final protein concentration of about 200 μg/mL.
Displacement experiments were performed by incubating the homogenate (980 μL) in the presence of [^3 H]-Ketanserine (0.5-1.0 nM) (10 μL) and of different concentrations of the test compounds dissolved in the assay buffer (10 μL), at 37° C. for 10 min (final volume: 1 mL).
Non specific binding was determined in the presence of 100 μM Methysergide (10 μL). The separation of [^3 H]-Ketanserine free from that bound to the receptor was carried by the filtration technique (GF/B filters, Whatman). The radioactivity present was counted by liquid scintillation spectrometry.
(§1) The affinity values (Ki) for the compounds were obtained by non linear least squares regression analysis on the basis of a one binding site model. These values were corrected on the basis of the radioligand occupancy on the receptors according to the equation: Ki=IC50 /(1+[C]/KD), where [C] and KD represent the concentration and the dissociation constant, respectively, of the radioligand used ([^3 H]-Ketanserine).
The results of some of the compounds of the present invention on the affinity to the 5-HT1A and 5-HT2 receptors are reported in Table 1.

5-HT1A receptors = experiment: Behavioral syndrome: induction of 5-HT1A related syndrome; assay type: in vivo, rat; parameters: key: sum of symptom scores per rat within 50 min; conditions: within 50 min, mean ± s.e. from 4 rats
Procedure: The test consists of administering the compound and registering the presence of the above mentioned symptoms within 50 min giving them a score. The results are expressed as the sum of said scores for each rat (Tab. 2).
Values represent mean± s.e. from 4 rats

5-HT2 receptors = experiment: Antagonism of quipazine-induced head twitches; assay type: in vivo; conditions: ip; head twitches scored within 20 minutes in quipazine-treated animals
5-HT1A receptor = molecular target: T2, 5-HT1A receptor (Rattus norvegicus, UniProt P19327); experiment: 5-HT1A receptor binding ([3H]-8-OH-DPAT displacement, rat hippocampi); parameters: species or system rat (male Sprague Dawley); conditions: 30° C. for 15 min, read-out: AFFINITY FOR 5-HT1A RECEPTORS Ki
T2 construct: The Hippocampi of these animals were homogenized in 10 volumes of ice cold TRIS buffer; from tissue; host or cells: hippocampus of male Sprague Dawley rats, homogenate
T2 sequence (P19327 1-422): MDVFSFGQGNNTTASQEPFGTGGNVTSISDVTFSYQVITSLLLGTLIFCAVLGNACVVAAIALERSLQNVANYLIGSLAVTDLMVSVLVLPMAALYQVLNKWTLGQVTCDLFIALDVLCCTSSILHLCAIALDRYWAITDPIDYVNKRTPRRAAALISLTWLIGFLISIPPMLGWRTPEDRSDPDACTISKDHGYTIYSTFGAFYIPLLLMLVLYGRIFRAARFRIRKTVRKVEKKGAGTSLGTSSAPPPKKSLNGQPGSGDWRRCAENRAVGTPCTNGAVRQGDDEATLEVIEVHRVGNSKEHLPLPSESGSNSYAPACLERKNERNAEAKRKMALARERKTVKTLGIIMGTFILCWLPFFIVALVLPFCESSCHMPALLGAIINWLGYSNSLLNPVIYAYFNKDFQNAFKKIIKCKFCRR
Procedure: Rats (male Sprague Dawley, 200-250 g) were used. The Hippocampi of these animals were homogenized in 10 volumes of ice cold TRIS buffer (pH 7.4). The homogenate was diluted 1:400 (w:v) in the same buffer to have a final protein concentration of about 200 μg/mL, filtered and incubated at 37° C. for 10 min, before use.
Displacement experiments were performed by incubating the homogenate (980 μL) in the presence of [^3 H]-80H-DPAT (1.0-1,5 nM) (10 μL) and of different concentrations of the test compounds dissolved in the test buffer (10 μL), at 30° C. for 15 min (final volume: 1 mL).
Non specific binding was determined in the presence of 100 μM 5-HT (10 μL). The separation of [^3 H]-8-OH-DPAT, free from that bound to the receptor, was carried out by the filtration technique (GF/B filters, Whatman). The radioactivity present was counted by liquid scintillation spectrometry.
as §1, with “by a” for “by”, “The” for “These”, “/(1+[C]/KD),where” for “/(1+[C]/KD), where”, “H]-8-OH-DPAT).” for “H]-Ketanserine).”

T1 sequence (P14842 whole entry): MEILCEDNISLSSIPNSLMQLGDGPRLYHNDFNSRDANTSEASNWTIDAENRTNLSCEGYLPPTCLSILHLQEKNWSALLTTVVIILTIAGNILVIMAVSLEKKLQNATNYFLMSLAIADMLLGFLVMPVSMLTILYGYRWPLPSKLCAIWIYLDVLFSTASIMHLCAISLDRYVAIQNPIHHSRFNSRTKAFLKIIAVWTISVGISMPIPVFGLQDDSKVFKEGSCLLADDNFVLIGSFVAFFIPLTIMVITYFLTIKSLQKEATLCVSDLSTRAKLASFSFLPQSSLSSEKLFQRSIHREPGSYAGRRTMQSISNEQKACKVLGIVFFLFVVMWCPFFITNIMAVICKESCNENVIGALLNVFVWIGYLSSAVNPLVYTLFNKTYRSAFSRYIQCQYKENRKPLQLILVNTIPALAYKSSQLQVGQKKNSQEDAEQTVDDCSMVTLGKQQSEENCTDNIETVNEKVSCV

| SMILES | Ki (5-HT2 receptor) | INDUCTION OF 5-HT1A RELATED SYNDROME Total score (5-HT1A receptors; dose 8 mg/kg/ip) | DOSE OF COMPOUND (ID50) WHICH ANTAGONIZES THE SYNDROME INDUCED BY QUIPAZINE (5-HT2 receptors) | Ki (5-HT1A receptor) | INDUCTION OF 5-HT1A RELATED SYNDROME Total score (5-HT1A receptors; dose 32 mg/kg/ip) | INDUCTION OF 5-HT1A RELATED SYNDROME Total score (5-HT1A receptors; dose 16 mg/kg/ip) |
| --- | --- | --- | --- | --- | --- | --- |
| O=c1[nH]c2ccccc2n1CCCCN1CCN(c2cccc(C(F)(F)F)c2)CC1 [Compound 8, 1-[4-(4-(3-trifluoromethyl-phenyl)piperazin-1-yl)butyl]-2,3-dihydro-1H -benzimidazol-2-one] | 0.0095 µM | 3.0 ± 2.7 | 385 μg/kg/ip | 0.053 µM | – | – |
| Cn1c(=O)n(CCCCN2CCN(c3cccc(Cl)c3)CC2)c2ccccc21 [Compound 17, 1-[4-(4-(3-chlorophenyl)piperazin-1-yl)butyl]-3-methyl-2,3-dihydro-1H-benzimidazol-2-one] | 0.008 µM | 1.5 ± 0.7 | 178 μg/kg/ip | 0.03 µM | 10.3 ± 2.9 | – |
| CC(C)n1c(=O)n(CCCCN2CCN(c3cccc(C(F)(F)F)c3)CC2)c2ccccc21 [Compound 15, 1-[4-(4-(3-trifluoromethyl-phenyl)piperazin-1-yl)butyl]-3-isopropyl-2,3-dihydro-1H-benzimidazol-2-one] | 0.02 µM | – | – | 0.08 µM | – | – |
| O=c1[nH]c2ccccc2n1CCCCN1CCN(c2cccc3ccccc23)CC1 [Compound 30, 1-[4-(4-(1-naphtyl)piperazin-1-yl)butyl]-2,3-dihydro-1H-benzimidazol-2-one] | 0.007 µM | – | – | 0.01 µM | – | – |
| COc1ccccc1N1CCN(CCCCn2c(=O)[nH]c3ccccc32)CC1 [Compound 1, 1-[4-(4-(2-methoxy-phenyl)piperazin-1-yl)butyl]-2,3-dihydro-1H-benzimidazol-2-one] | 0.036 µM | 7.3 ± 0.9 | 720 μg/kg/ip | 0.013 µM | – | – |
| CCn1c(=O)n(CCCCCCN2CCN(c3cccc(C(F)(F)F)c3)CC2)c2ccccc21 [Compound 13, 1-[6-(4-(3-trifluoromethyl-phenyl)piperazin-1-yl)hexyl]-3-ethyl-2,3-dihydro-1H-benzimidazol-2-one] | 0.015 µM | – | 8200 μg/kg/ip | 0.015 µM | 3.8 ± 1.3 | – |
| Cn1c(=O)n(CCCCN2CCN(c3cccc(C(F)(F)F)c3)CC2)c2ccccc21 [Compound 9, 1-[4-(4-(3-trifluoromethyl-phenyl)piperazin-1-yl)butyl]-3-methyl-2,3-dihydro-1H-benzimidazol-2-one] | 0.014 µM | 2.0 ± 0.6 | 1720 μg/kg/ip | 0.023 µM | – | – |
| O=c1[nH]c2ccccc2n1CCCN1CCN(c2cccc(C(F)(F)F)c2)CC1 [Compound 18, 1-[3-(4-(3-trifluoromethyl-phenyl)piperazin-1-yl)propyl]-2,3-dihydro-1H-benzimidazol-2-one] | 0.004 µM | – | 170 μg/kg/ip | 0.025 µM | 12.0 ± 3.2 | 3.8 ± 2.2 |
| COc1ccc2[nH]c(=O)n(CCCCN3CCN(c4ccccc4OC)CC3)c2c1 [Compound 24, 6-methoxy-1-[4-(4-(2-methoxyphenyl)piperazin-1-yl)butyl]-2,3-dihydro-1H-benzimidazol-2-one] | 0.065 µM | 4.3 ± 1.1 | 102 μg/kg/ip | 0.012 µM | – | – |
| O=c1[nH]c2ccccc2n1CCN1CCN(c2cccc(C(F)(F)F)c2)CC1 [Compound 3, 1-[2-(4-(3-trifluoromethyl-phenyl)piperazin-1-yl)ethyl]-2,3-dihydro-1H-benzimidazol-2-one] | 0.133 µM | – | 498 μg/kg/ip | 0.05 µM | – | 5.3 ± 1.2 |
| COc1ccc2[nH]c(=O)n(CCCCN3CCN(c4cccc(C(F)(F)F)c4)CC3)c2c1 [Compound 25, 6-methoxy-1-[4-(4-(3-trifluoromethyl-phenyl)piperazin-1-yl)butyl]-2,3-dihydro-1H-benzimidazol-2-one] | 0.025 µM | 2.0 ± 1.2 | 1420 μg/kg/ip | 0.1 µM | – | – |
| O=c1[nH]c2ccccc2n1CCCCN1CCN(c2cccc(Cl)c2)CC1 [Compound 4, 1-[4-(4-(3-chlorophenyl)piperazin-1-yl)butyl]-2,3-dihydro-1H-benzimidazol-2-one] | 0.0014 µM | 0.8 ± 0.5 | 250 μg/kg/ip | 0.074 µM | – | 3.3 ± 1.0 |
| COc1ccccc1N1CCN(CCCn2c(=O)[nH]c3ccccc32)CC1 [Compound 10, 1-[3-(4-(2-methoxyphenyl)piperazin-1-yl)propyl]-2,3-dihydro-1H-benzimidazol-2-one] | 0.03 µM | 3.0 ± 0.4 | 3300 μg/kg/ip | 0.005 µM | – | – |
